Data taken from patent US20180267019A1, “USE OF PEPTIDE HYDROGEL SCAFFOLDS FOR THREE-DIMENSIONAL THROUGHPUT DRUG DISCOVERY” (UNIVERSITY OF DELAWARE, priority 2015, published 2018).

Columns and labels:
medulloblastoma cells [1] = assay: DMSO tolerance of medulloblastoma cells in hydrogel-cell constructs, 384-well plate; assay type: cell-based, human
Method: Unless noted otherwise, cell viability assays were performed in 384-well plates using the RealTime-Glo™ MT Cell Viability Assay from Promega. For each experiment two stock solutions were prepared. For the first solution, 50 mM HEPES (pH 7.4) buffer was mixed with 0.5 wt % MAX8 (5 mg MAX8 per mL buffer solution for a final 0.25 wt % MAX8 hydrogel construct). The second solution was a cell solution with 11×10^6 per mL of medulloblastoma cells in serum-free DMEM. The two stock solutions were thoroughly mixed 1:1 to create a cell/gel mixture and 4 μL of the mixture was added per well to a white 384 well assay plate (Corning) containing 41 μL culture medium per well. The cells were allowed to equilibrate for 24 hours before any luminescence was determined. […] The plate was incubated for 60 minutes at 37 C and the luminescence was measured using an Envision Multilevel Reader (Perkin Elmer).
Owing to its unique shear force properties, MAX8-medulloblastoma cell constructs were dispensed at room temperature into 384-well plates (2,000 cells in 4 μL of hydrogel) (Brandtech) with 50 μL of culture medium (DMEM with serum) using a BioTek microplate dispenser. […] 10 μL of the intermediate drug media was then added to the QC plates, and following 48 h of cell culture the cell viability was measured using RealTime-Glo and the previously described method.

medulloblastoma cells [2] = assay: Treatment of MAX8-RGDS-encapsulated medulloblastoma cells and 2D monolayers with vismodegib, cell viability; assay type: cell-based, human; settings: MAX8-RGDS 3D constructs vs 2D monolayers, 48 hours, FIG. 3B
Method: Vismodegib was added into the surrounding tissue culture medium of MAX8 hydrogel-cell constructs after 24 hours of cell seeding at the indicated concentrations. To limit the exposure of cultured cells to dimethyl sulfoxide (DMSO) from stock solutions of test compounds, 3.5 μL of stock solution was diluted in 1 mL of culture medium and then 20 μL of this solution was added to each well using the Janus workstation (PerkinElmer). Following 48 hours of cell culture the cell viability was measured as previously described using RealTime-Glo with a final concentration of 1×.

[3] = test system: human medulloblastoma cells; assay: RealTime-Glo cell viability of medulloblastoma cells encapsulated in MAX8 hydrogel-cell constructs; assay type: cell-based
Method: (§1) Human medulloblastoma cells were propagated in Dulbecco's […] Media (DMEM) supplemented with 10% fetal bovine serum and penicillin-streptomycin-glutamine at 37° C. and 5% CO2 using standard 2D cell culture protocols and tissue-culture treated plastic cell ware. For isolation of primary cerebellar granule precursor (CGP) cells, the cerebellum was dissected from P4-6 pups of C57BL/6 mice and dissociated into single cells using the Papain Dissociation System kit (Worthington Biochemical Corp, Freehold, N.J.). After filtering through a nylon mesh (70 μm pore size), the cells were briefly centrifuged and resuspended in Neurobasal medium supplemented with […] and B27.
In general and unless otherwise indicated, MAX8-cell constructs were prepared as 0.25 wt % MAX8 hydrogels. First, the peptide was dissolved in 50 mM HEPES buffer (pH 7.4) ([…] of hydrogel) and then an equal volume of single cell suspension in DMEM was added and gently mixed. Mixing the MAX8 solution with the culture medium triggers the intramolecular folding of the peptide, resulting in self-assembly into a hydrogel. For additional hydrogels with different concentrations of MAX8, the amount of peptide was adjusted but otherwise the same hydrogel assembly protocol was followed. The same procedures were followed when functionalized MAX8 was used to prepare hydrogel-cell constructs.
Unless noted otherwise, cell viability assays were performed in 384-well plates using the RealTime-Glo™ MT Cell Viability Assay from Promega. For each experiment two stock solutions were prepared. For the first solution, 50 mM HEPES (pH 7.4) buffer was mixed with 0.5 wt % MAX8 (5 mg MAX8 per mL buffer solution for a final 0.25 wt % MAX8 hydrogel construct). The second solution was a cell solution with 11×10^6 per mL of medulloblastoma cells in serum-free DMEM. The two stock solutions were thoroughly mixed 1:1 to create a cell/gel mixture and 4 μL of the mixture was added per well to a white 384 well assay plate (Corning) containing 41 μL culture medium per well. The cells were allowed to equilibrate for 24 hours before any luminescence was determined. 10× RealTime-Glo was added in 5 μL of media to each well already containing 45 μL to a final concentration of 1×. For cell viability assays in 96-well plates, the following volumes were used. 74 μL of DMEM cell media containing serum was added to each well, 16 μL of the previously mentioned 0.25 wt % MAX8 cell/gel construct was then added to each well. 10 μL of 10× RealTime-Glo was added to the wells for a final concentration of 1×. The plate was incubated for 60 minutes at 37 C and the luminescence was measured using an Envision Multilevel Reader (Perkin Elmer).

[4] = test system: primary cerebellar granule precursors (CGPs); assay: RealTime-Glo cell viability of primary cerebellar granule precursor cells encapsulated in MAX8; assay type: cell-based, C57BL/6 mice; settings: 0.5 wt % MAX8, RealTime-Glo, FIG. 2B
Method: as §1
In general and unless otherwise indicated, MAX8-cell constructs were prepared as 0.25 wt % MAX8 hydrogels. First, the peptide was dissolved in 50 mM HEPES buffer (pH 7.4) ([…] of hydrogel) and then an equal volume of single cell suspension in DMEM was added and gently mixed. […]
Unless noted otherwise, cell viability assays were performed in 384-well plates using the RealTime-Glo™ MT Cell Viability Assay from Promega. […] The cells were allowed to equilibrate for 24 hours before any luminescence was determined. […] The plate was incubated for 60 minutes at 37 C and the luminescence was measured using an Envision Multilevel Reader (Perkin Elmer).

[5] = Hydrogel material properties (oscillatory rheology, gelation); assay type: physicochemical
Method: Rheology measurements were performed on an AR G2 rheometer (TA instruments) with a 20 mm stainless steel parallel plate geometry. […] Dynamic time sweep experiments (DTS) were performed to monitor the storage (G′) and loss (G″) modulus as a function of time (6 rad/s frequency, 0.2% strain) for 60 min. For shear-thinning experiments, the samples were subjected to 500 s^−1 steady-state shear for 60 s after which oscillatory measurement was performed at 6 rad/s frequency, 0.2% strain. Subsequently, recovery of the storage (G′) and loss (G″) modulus as a function of time was monitored for 30 min. Dynamic frequency (0.1-100 rad/s frequency, 1.0% strain) sweep experiments were performed to establish the frequency response of the samples. All measurements were performed in triplicates.

[6] = 0.5 wt % hydrogel, RealTime-Glo, FIG. 2C

C[S+](C)[O-] [DMSO, dimethyl sulfoxide]
DMSO concentration at which medulloblastoma cells were viable (medulloblastoma cells [1]): up to 1%

CS(=O)(=O)c1ccc(C(=O)Nc2ccc(Cl)c(-c3ccccn3)c2)c(Cl)c1 [vismodegib]
sensitivity (dose response of cell viability), monolayers vs hydrogel cultures (medulloblastoma cells [2]): shift in dose response curves between monolayers and hydrogel cultures

IKVAVVKVKVKVK-(V^DPPT)-KVEVKVKV-NH2 [MAX8-IKVAV]
proliferation of medulloblastoma cells when compared to MAX8 [3, 6]: increased the proliferation

VKVKVKVK-(V^DPPT)-KVEVKVKV-NH2 [MAX8]
viability of medulloblastoma cells within MAX8-cell constructs ([3]; 0.25 or 0.5 wt % MAX8, RealTime-Glo, FIG. 2A): viable for several days
cell proliferation as a function of MAX8 concentration ([3]; 0.25 vs 0.5 wt % MAX8, FIG. 2A): cell proliferation decreased with increasing MAX8 concentrations
viability of primary CGPs within MAX8-cell constructs [4]: viable for several days
stiffness of the hydrogel ([5]; controllable by weight percent of the peptide): around 1000 Pa
gelation time ([5]; room temperature, physiological salt concentration and pH): gelates within a minute

RGDSVKVKVKVK-(V^DPPT)-KVEVKVKV-NH2 [MAX8-RGDS]
proliferation of medulloblastoma cells encapsulated in cell constructs, over native MAX8 [3, 6]: 1.4 fold

YIGSRVKVKVKVK-(V^DPPT)-KVEVKVKV-NH2 [MAX8-YIGSR]
proliferation of medulloblastoma cells when compared to MAX8 [3, 6]: increased the proliferation
